{"source": "patent US3957999A", "about": "“Anilinobenzothiazoles as antidepressants” (The Boots Company, priority 1974, dated 1976)", "type_in_all_cases": "in vivo", "key": {"[1]": {"system": "cats", "test": "amphetamine-like stereotyped reactions in cats (amphetamine-like CNS stimulant activity)", "conditions": "for amphetamine-like stereotyped reactions: cats, comparative tests at similar dosage levels"}, "[2]": {"system": "rabbits", "test": "teratogenicity in rabbits", "conditions": "similar dosage levels"}, "[3]": {"system": "rats", "test": "teratogenicity in rats", "conditions": "similar dosage levels"}, "[4]": {"system": "reserpine-induced hypothermia", "test": "reversal of reserpine-induced hypothermia test in mice (antireserpine activity)", "conditions": "Mus musculus, Shadbolt et al., read-out: ED50 (median effective dose)", "experimental": "A test to evaluate this property was carried out with the compounds of formula I (R = H or CH3 O). The test was carried out in mice as described by Shadbolt et al. in J. Med. Chem. vol. 14 p.837 (1971), and the following results were obtained."}}}
{"smiles": "CCN(CC)CCOc1ccc(Nc2nc3ccccc3s2)cc1", "note": "[2-[4-(2-diethylaminoethoxy)anilino]benzothiazole]", "values": [{"measurement": "amphetamine-like CNS stimulant activity", "setting": "[1]; as shown by stereotyped reactions in cats", "result": "undesirably high level of amphetamine-like CNS stimulant activity"}, {"measurement": "amphetamine-like stereotyped reactions", "setting": "[1]", "result": "produces amphetaminelike stereotyped reactions"}]}
{"smiles": "c1ccc2sc(Nc3ccc(OCCN4CCCCC4)cc3)nc2c1", "note": "[2-[4-(2-piperidin-1-ylethoxy)anilino]benzothiazole]", "values": [{"measurement": "amphetamine-like stereotyped reactions", "setting": "[1]", "result": "causes amphetamine-like stereotyped reactions"}]}
{"smiles": "c1ccc2oc(Nc3ccc(OCCN4CCCC4)cc3)nc2c1", "note": "[2-[4-(2-pyrrolidin-1-ylethoxy)anilino]benzoxazole]", "values": [{"measurement": "teratogenicity", "setting": "[2]", "result": "markedly teratogenic"}, {"measurement": "teratogenicity", "setting": "[3]", "result": "markedly teratogenic"}]}
{"smiles": "c1ccc2sc(Nc3ccc(OCCN4CCCC4)cc3)nc2c1", "note": "[compound I, R=hydrogen, 2-[4-(2-pyrrolidin-1-ylethoxy)anilino]benzothiazole]", "values": [{"measurement": "ED50", "setting": "[4]", "result": 3.7, "unit": "mg/kg"}, {"measurement": "teratogenicity", "setting": "[3]", "result": "no evidence of teratogenicity"}]}
{"smiles": "COc1ccc2sc(Nc3ccc(OCCN4CCCC4)cc3)nc2c1", "note": "[compound I, R=methoxy, 5-methoxy-2-[4-(2-pyrrolidin-1-ylethoxy)anilino]benzothiazole]", "values": [{"measurement": "teratogenicity", "setting": "[2]", "result": "no evidence of teratogenicity"}, {"measurement": "ED50", "setting": "[4]", "result": 3.1, "unit": "mg/kg"}, {"measurement": "teratogenicity", "setting": "[3]", "result": "no evidence of teratogenicity"}]}
